In ChEMBL document CHEMBL1201862, “PubChem BioAssay data set” (2004):
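Cells were grown in 96-well plates and exposed to each compound for 48 hours at five concentrations; endpoints were interpolated linearly between bracketing concentrations, or set to the highest concentration if not reached. Here, GI50 denotes the concentration required for 50% inhibition of growth.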 Active and inactive are the calls of the source. No stated cut-off is given here; in the data, active = GI50 up to about 1.1 µM and inactive = higher.

Legend:
Assay in all cases: NCI anticancer screen, dose series, 48 h
A498 = system: A498
EKVX = system: EKVX
HL-60 = system: HL-60
HT-29 = system: HT-29
K562 = system: K562
MOLT-4 = system: MOLT-4
Malme-3M = system: Malme-3M
RPMI-8226 = system: RPMI-8226
RXF 393 = system: RXF 393
SF-539 = system: SF-539
SK-MEL-5 = system: SK-MEL-5
SW-620 = system: SW-620
TK-10 = system: TK-10
UACC-257 = system: UACC-257
UO-31 = system: UO-31
HCC 2998 = system: HCC 2998
UACC-62 = system: UACC-62

| Structure (SMILES) | GI50 (A498) | GI50 (EKVX) | GI50 (HL-60) | GI50 (HT-29) | GI50 (K562) | GI50 (MOLT-4) | GI50 (Malme-3M) | GI50 (RPMI-8226) | GI50 (RXF 393) | GI50 (SF-539) | GI50 (SK-MEL-5) | GI50 (SW-620) | GI50 (TK-10) | GI50 (UACC-257) | GI50 (UO-31) | GI50 (HCC 2998) | GI50 (UACC-62) |
| --- | --- | --- | --- | --- | --- | --- | --- | --- | --- | --- | --- | --- | --- | --- | --- | --- | --- |
| COc1nc(NC2OCC(OC(C)=O)C(OC(C)=O)C2OC(C)=O)c(/N=C(\C)C(C)=O)c(=O)n1C (centres undefined) | > 100 µM (inactive) | > 100 µM (inactive) | > 100 µM (inactive) | > 100 µM (inactive) | > 100 µM (inactive) | > 100 µM (inactive) | > 100 µM (inactive) | > 100 µM (inactive) | > 100 µM (inactive) | > 100 µM (inactive) | > 100 µM (inactive) | > 100 µM (inactive) | > 100 µM (inactive) | > 100 µM (inactive) | > 100 µM (inactive) |  |  |
| O=c1cc(/C=C/c2ccccc2)c2ccc(O/C(=C\c3ccccc3)c3nc4ccccc4c(=O)o3)cc2o1 | 34.1 µM (inactive) | 23.7 µM (inactive) | 12.7 µM (inactive) |  | 10.8 µM (inactive) | 17.6 µM (inactive) | 31.3 µM (inactive) | 4.76 µM (inactive) |  | 23.3 µM (inactive) | 16.3 µM (inactive) | 37.5 µM (inactive) | 51.4 µM (inactive) | 28.9 µM (inactive) |  | 33.3 µM (inactive) | 24.7 µM (inactive) |
| CN1C(=O)CC2(C)c3cc(C=O)ccc3N(C)C12 (centres undefined) | > 100 µM (inactive) | > 100 µM (inactive) |  | > 100 µM (inactive) | > 100 µM (inactive) | > 100 µM (inactive) | > 100 µM (inactive) |  | > 100 µM (inactive) | > 100 µM (inactive) | > 100 µM (inactive) | > 100 µM (inactive) | > 100 µM (inactive) | > 100 µM (inactive) | > 100 µM (inactive) | > 100 µM (inactive) | > 100 µM (inactive) |
| COP(=O)(OC)C(=O)N1N(c2ccc([N+](=O)[O-])cc2)C(=O)C(C)NC1(NNc1ccc([N+](=O)[O-])cc1)P(=O)(OC)OC (centres undefined) | > 100 µM (inactive) | > 100 µM (inactive) | 64.6 µM (inactive) |  | > 100 µM (inactive) | > 100 µM (inactive) | > 100 µM (inactive) | > 100 µM (inactive) |  | > 100 µM (inactive) | > 100 µM (inactive) | > 100 µM (inactive) | > 100 µM (inactive) | > 100 µM (inactive) | > 100 µM (inactive) | > 100 µM (inactive) | > 100 µM (inactive) |
| COC(=O)C1CCC(N2C(=O)CCC2C(=O)OC)=N1 (centres undefined) | > 100 µM (inactive) | > 100 µM (inactive) | > 100 µM (inactive) | > 100 µM (inactive) | > 100 µM (inactive) | > 100 µM (inactive) | > 100 µM (inactive) | > 100 µM (inactive) |  |  |  | > 100 µM (inactive) | > 100 µM (inactive) | > 100 µM (inactive) | > 100 µM (inactive) | > 100 µM (inactive) | > 100 µM (inactive) |
| CC1(C)C2=CCCC(=O)[C@@]2(C)CC[C@@H]1O |  | > 100 µM (inactive) | > 100 µM (inactive) | > 100 µM (inactive) | > 100 µM (inactive) | > 100 µM (inactive) |  | > 100 µM (inactive) | > 100 µM (inactive) | > 100 µM (inactive) | > 100 µM (inactive) | > 100 µM (inactive) | > 100 µM (inactive) | > 100 µM (inactive) | > 100 µM (inactive) | > 100 µM (inactive) | > 100 µM (inactive) |
| CC(=O)OCC1OC(n2c(-c3ccc(C)cc3)cc(-c3ccccc3)c(C#N)c2=O)C(OC(C)=O)C(OC(C)=O)C1OC(C)=O (centres undefined) |  | > 100 µM (inactive) | 48.9 µM (inactive) | > 100 µM (inactive) | > 100 µM (inactive) | > 100 µM (inactive) | > 100 µM (inactive) | 67.1 µM (inactive) |  | > 100 µM (inactive) | > 100 µM (inactive) | > 100 µM (inactive) | > 100 µM (inactive) | > 100 µM (inactive) | > 100 µM (inactive) | > 100 µM (inactive) | > 100 µM (inactive) |
| O=C1c2ccccc2C(=O)C2C1C1C(=O)c3ccccc3C(=O)C21 (centres undefined) |  | > 100 µM (inactive) | 58.9 µM (inactive) | > 100 µM (inactive) | > 100 µM (inactive) |  | 55.1 µM (inactive) |  | > 100 µM (inactive) | > 100 µM (inactive) | 32.6 µM (inactive) | > 100 µM (inactive) | > 100 µM (inactive) | > 100 µM (inactive) | > 100 µM (inactive) | 51.6 µM (inactive) | > 100 µM (inactive) |
| CN1Nc2ccccc2CC1=O | > 100 µM (inactive) | > 100 µM (inactive) |  | > 100 µM (inactive) | > 100 µM (inactive) |  | > 100 µM (inactive) | > 100 µM (inactive) |  | > 100 µM (inactive) | > 100 µM (inactive) | > 100 µM (inactive) | > 100 µM (inactive) | > 100 µM (inactive) | > 100 µM (inactive) | > 100 µM (inactive) | > 100 µM (inactive) |
| Nc1nc(=O)[nH]c2c1cnn2Cc1ccccc1 | > 100 µM (inactive) | > 100 µM (inactive) | > 100 µM (inactive) | > 100 µM (inactive) | > 100 µM (inactive) | > 100 µM (inactive) | > 100 µM (inactive) | > 100 µM (inactive) | 1.4 µM (inactive) | > 100 µM (inactive) | > 100 µM (inactive) | > 100 µM (inactive) | 1.35 µM (inactive) | > 100 µM (inactive) | > 100 µM (inactive) |  |  |
| N#CCCN(CCC#N)c1ccc(/C=C(\NC(=O)c2cc([N+](=O)[O-])ccc2Cl)C(=O)Nc2ccccc2)cc1 |  | > 100 µM (inactive) |  |  | 6.82 µM (inactive) | 32.2 µM (inactive) |  | > 100 µM (inactive) | > 100 µM (inactive) | 49.7 µM (inactive) | > 100 µM (inactive) |  | 48 µM (inactive) |  | > 100 µM (inactive) |  | 4.52 µM (inactive) |
| Cc1cc(O)nc(NN2C(Cl)C(=O)C2c2ccc([N+](=O)[O-])cc2)n1 (centres undefined) |  | 23 µM (inactive) | 4.12 µM (inactive) | 15.6 µM (inactive) | 3.1 µM (inactive) | 8.13 µM (inactive) |  | 7.35 µM (inactive) | 0.76 µM (active) | 10.8 µM (inactive) | 13.5 µM (inactive) | 20.5 µM (inactive) | 15.8 µM (inactive) | 16 µM (inactive) | 13.9 µM (inactive) | 15.3 µM (inactive) | 3.31 µM (inactive) |
| O=C(N/C(=C\c1ccccc1Cl)c1nc2ccccc2[nH]1)c1ccccc1 |  | 21.3 µM (inactive) | 25.7 µM (inactive) | 24.3 µM (inactive) | 24.5 µM (inactive) | 20.6 µM (inactive) | 23.5 µM (inactive) |  | 27.4 µM (inactive) | 32.7 µM (inactive) | 17.4 µM (inactive) | 27.5 µM (inactive) | 76.4 µM (inactive) |  | 11.2 µM (inactive) | 29.4 µM (inactive) | 21.4 µM (inactive) |
| Cc1ccc(-c2cc(=O)c3cc(C)c(C)c(C(=O)O)c3o2)cc1C |  | > 100 µM (inactive) | > 100 µM (inactive) | > 100 µM (inactive) | > 100 µM (inactive) | > 100 µM (inactive) | > 100 µM (inactive) | > 100 µM (inactive) | > 100 µM (inactive) | > 100 µM (inactive) | > 100 µM (inactive) | > 100 µM (inactive) | > 100 µM (inactive) | > 100 µM (inactive) | > 100 µM (inactive) | > 100 µM (inactive) | > 100 µM (inactive) |
| COC(=O)CCC(=O)Nc1cc(Cl)ccc1Cl |  | > 100 µM (inactive) | > 100 µM (inactive) | > 100 µM (inactive) | > 100 µM (inactive) | > 100 µM (inactive) | > 100 µM (inactive) | > 100 µM (inactive) | 30.2 µM (inactive) | > 100 µM (inactive) | > 100 µM (inactive) | > 100 µM (inactive) | > 10 µM (inactive) | > 100 µM (inactive) | > 100 µM (inactive) | > 100 µM (inactive) | > 100 µM (inactive) |
| CCCCN1C(=O)NC(Cc2ccccc2)C1=O (centres undefined) |  | > 100 µM (inactive) |  | > 100 µM (inactive) |  |  | > 100 µM (inactive) |  | > 100 µM (inactive) | > 100 µM (inactive) |  | > 100 µM (inactive) | > 100 µM (inactive) | > 100 µM (inactive) | > 100 µM (inactive) | > 100 µM (inactive) |  |
| C[C@]12CC[C@H](OC3CCCCO3)CC1=CC[C@@H]1C2CC[C@]2(C)/C(=N/O)CCC12 (some centres undefined) | > 100 µM (inactive) | 23.7 µM (inactive) |  | 12.3 µM (inactive) | 14.4 µM (inactive) | 10.9 µM (inactive) | 17.9 µM (inactive) | 10.6 µM (inactive) | 23.2 µM (inactive) | 47.1 µM (inactive) | 88.9 µM (inactive) | 36.9 µM (inactive) | 30.5 µM (inactive) | 30.3 µM (inactive) | 39.1 µM (inactive) | 17.5 µM (inactive) | 42.7 µM (inactive) |
| O=c1[nH]c2c(O)cccc2c2cc3c(c(O)c12)OCO3 [NARCIPRIMINE] | 21.2 µM (inactive) | 25.8 µM (inactive) | 6.44 µM (inactive) | 21.2 µM (inactive) | 17.5 µM (inactive) | 16.8 µM (inactive) | 22.8 µM (inactive) | 25 µM (inactive) |  | 18 µM (inactive) | 17.1 µM (inactive) | 26.6 µM (inactive) | 42.7 µM (inactive) | 19.7 µM (inactive) | 17.1 µM (inactive) | 19.5 µM (inactive) | 18.3 µM (inactive) |
